What is called Kd is the concentration at which binding is half-saturated. Higher therefore signals weaker binding.

Kd data for 1 compound are collected here from article PMC3410613 (Frontiers in Plant Science, 2012).

The target of this test is T1, A. thaliana PII (H6PII-tp) (Arabidopsis thaliana, UniProt Q9ZST4).
T1 sequence (Q9ZST4 62-196): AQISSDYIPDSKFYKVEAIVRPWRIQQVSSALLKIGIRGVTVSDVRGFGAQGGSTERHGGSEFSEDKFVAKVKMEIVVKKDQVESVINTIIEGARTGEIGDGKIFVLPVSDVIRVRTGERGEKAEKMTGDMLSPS
The experiment in a line: isothermal titration calorimetry. Format: binding.

Take `O=C(O)CCC(=O)C(=O)O` [2OG, 2-oxoglutarate]: binding was put at a Kd of 111 ± 3.4 µM.
